Measurements taken from ChEMBL document CHEMBL3425436, “Assessing the oral bioavailability of difluorosialic acid prodrugs, potent viral neuraminidase inhibitors, using a snapshot PK screening assay” (Bioorg Med Chem Lett, 2015).

Key:
[1] = Oral bioavailability in CD1 mouse at 30 mg/kg; format: ADME, organism-based; conditions: in vivo
[2] = Cmax in CD1 mouse at 30 mg/kg, po; format: ADME, organism-based; set-up: dose 30 mg/kg, route oral; conditions: in vivo
[3] = system: Mus musculus; experiment: AUC in CD1 mouse at 30 mg/kg, po; format: ADME, organism-based, Plasma; set-up: dose 30 mg/kg, route oral; conditions: in vivo
[4] = system: Mus musculus; experiment: AUC in CD1 mouse at 10 mg/kg, iv; format: ADME, organism-based, Plasma; set-up: dose 10 mg/kg, route intravenous; conditions: in vivo
[5] = Half life in CD1 mouse at 30 mg/kg, po; format: ADME, organism-based; set-up: dose 30 mg/kg, route oral; conditions: in vivo
[6] = Total plasma concentration in CD1 mouse at 50 mg/kg, po measured at 20 mins by reversed-phase UPLC/MS analysis; format: ADME, organism-based; set-up: dose 50 mg/kg, route oral
[7] = Tmax in CD1 mouse at 30 mg/kg, po; format: ADME, organism-based; set-up: dose 30 mg/kg, route oral; conditions: in vivo
[8] = Total plasma concentration in CD1 mouse at 50 mg/kg, po measured at 60 mins by reversed-phase UPLC/MS analysis; format: ADME, organism-based; set-up: dose 50 mg/kg, route oral
[9] = Total plasma concentration in CD1 mouse at 30 mg/kg, po measured at 60 mins by reversed-phase UPLC/MS analysis; format: ADME, organism-based; set-up: dose 30 mg/kg, route oral
[10] = Total plasma concentration in CD1 mouse at 30 mg/kg, po measured at 20 mins by reversed-phase UPLC/MS analysis; format: ADME, organism-based; set-up: dose 30 mg/kg, route oral
[11] = system: Mus musculus; experiment: Prodrug conversion in CD1 mouse assessed as formation of (2R,3R,4R,5R,6R)-5-acetamido-4-amino-2,3-difluoro-6-((1R,2R)-1,2,3-trihydroxypropyl)tetrahydro-2H-pyran-2-carboxylic acid at 30 mg/kg, po; format: ADME, organism-based; set-up: dose 30 mg/kg, route oral; conditions: in vivo
[12] = system: Mus musculus; experiment: Total plasma concentration in CD1 mouse assessed as (2R,3R,4R,5R,6R)-5-acetamido-4-amino-2,3-difluoro-6-((1R,2R)-1,2,3-trihydroxypropyl)tetrahydro-2H-pyran-2-carboxylic acid at 30 mg/kg, po measured at 60 mins by reversed-phase UPLC/MS analysis; format: ADME, organism-based; set-up: dose 30 mg/kg, route oral; conditions: in vivo, 1 h
[13] = system: Mus musculus; experiment: Total plasma concentration in CD1 mouse assessed as (2R,3R,4R,5R,6R)-5-acetamido-4-amino-2,3-difluoro-6-((1R,2R)-1,2,3-trihydroxypropyl)tetrahydro-2H-pyran-2-carboxylic acid at 30 mg/kg, po measured at 20 mins by reversed-phase UPLC/MS analysis; format: ADME, organism-based; set-up: dose 30 mg/kg, route oral; conditions: in vivo

bioavailability [1]	Cmax [2]	AUC [3]	AUC [4]	half-life [5]	concentration at 20 min [6]	Tmax [7]	concentration at 1 h [8]	concentration at 1 h [9]	concentration at 20 min [10]	Drug metabolism [11]	concentration [12]	concentration [13]	Structure (SMILES)
3.1%	2.8 µM	320 µmol·min	3394 µmol·min	196 min	4.5 µM	20 min	8.21 µM	4.93 µM	2.7 µM				CC(=O)N[C@@H]1[C@@H](N)[C@@H](F)[C@](F)(C(=O)O)O[C@H]1[C@H](O)[C@H](O)CO
										metabolite_detected	4.86 µM	2.57 µM	COC(=O)[C@]1(F)O[C@@H]([C@H](O)[C@H]2COC(C)(C)O2)[C@H](NC(C)=O)[C@@H](N)[C@H]1F
64.5%	13.5 µM	1706 µmol·min		74 min		30 min		13.3 µM	8.41 µM				CCOC(=O)C1=C[C@@H](OC(CC)CC)[C@H](NC(C)=O)[C@@H](N)C1 [OSELTAMIVIR]
